# Measured values: paper PMC11111404, “Discovery of potent small-molecule inhibitors of lipoprotein(a) formation” (Nature, 2024)
# Where “and” joins values, the source holds several entries; their conditions need not be identical. Equal entries are not always repeated. Where two headings read alike, the source gives them in different places.
# Assays:
# apo(a) KIV2 = molecular target: T1, apo(a) KIV2 (Homo sapiens, UniProt P08519); assay: ITC binding to apo(a) KIV2
# T1 construct: made in house
# T1 sequence (P08519 141-219 limits assumed): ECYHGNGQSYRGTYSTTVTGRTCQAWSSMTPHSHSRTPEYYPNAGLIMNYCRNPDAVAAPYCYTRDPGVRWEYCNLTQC
# Description: The nucleotide sequence encoding the human LPA gene (NP_005568.2) was inserted into a mammalian expression vector containing a cytomegalovirus promoter. Protein expression was performed by transient transfection of human embryonic kidney 293 (HEK293) cells cultured in serum-free medium. The culture medium was collected five days after transfection and human apo(a) protein was purified using L-lysine affinity chromatography. Nucleotide sequences encoding various KIV domains of human apo(a) and human and rat plasminogen were inserted into a pET21a Escherichia coli expression vector. Bacterial BL21(DE3) was used as the expression host, and the induction of protein expression was performed in 2× TY medium with 1 mM isopropyl β-D-1-thiogalactopyranoside at 37 °C for 5 h. Cells were collected and stored at –80 °C for subsequent protein purification and refolding. The frozen cell pellets were lysed and inclusion bodies were purified. The protein refolding was performed using the rapid-dilution method, and the refolded proteins were further purified by size-exclusion chromatography. All protein concentrations were determined by A280.
# Experiments were performed on a MicroCal Auto-iTC200 titration calorimeter (Malvern Panalytical), with a cell volume of 200 μl and a 40-μl microsyringe. Experiments were performed at 25 °C while stirring at 750 rpm in ITC buffer (50 mM phosphate buffer at pH 8.0). The microsyringe was loaded with a solution of the respective compounds, with the concentration measured by quantitative nuclear magnetic resonance, and was inserted into the calorimetric cell prefilled with the respective recombinant proteins of known concentration in ITC buffer. The system was equilibrated to 25 °C and an extra delay of 60 s was applied. The first titrations were performed using an initial control injection of 0.5 μl, followed by 18 identical injections of 2 μl, with a duration of 4 s per injection and 150-s intervals between injections. The second titration was performed over the first titration without cleaning the cell and was carried out with continuous injections as an automation method in a MicroCal Auto-iTC200. The second titrations were performed using 19 identical injections of 2 μl, with a duration of 4 s per injection and 150-s injection intervals. The data were corrected for ligand heats of dilution and were deconvoluted using MicroCal PEAQ-ITC Analysis Software to yield the enthalpy of binding (ΔH) and the binding constant (K). Thermodynamic parameters were calculated using the basic equation of thermodynamics (ΔG = ΔH – TΔS = –RTlnKd), where ΔG, ΔH and ΔS are the changes in free energy, enthalpy and entropy of binding, respectively; Kd is the equilibrium dissociation constant; T is the absolute temperature (kelvins); and R is the gas constant (1.987 cal mol^−1 K^−^1). A single-binding-site model was used in MicroCal PEAQ-ITC Analysis Software v.0.9.
# Lp(a) = Lp(a) levels in cynomolgus monkeys; assay type: in vivo, cynomolgus monkey (Macaca fascicularis); design: key to Mean_pCFB_vs_Veh / Mean_pCFB_vs_Veh (Lp(a)): % change from pre-dose, treated group compared with vehicle; key to Mean_pCFB / Mean_pCFB (Lp(a)): % change in Lp(a) from before dosing; Lp(a): unit not given here; conditions: for Lp(a): Fig 3b raw data; for Mean_pCFB / Mean_pCFB_vs_Veh: Lp(a), female cynomolgus monkeys; for maximum decrease of median Lp(a) levels / %Lp(a) max decrease (dose, mg/kg): cynomolgus monkeys; for maximum decrease of median Lp(a) levels: after 5 days; for %Lp(a) max decrease (dose, mg/kg): 14 days dosing
# Description: Female or male Chinese Macaca fascicularis cynomolgus monkeys (as described in the figure legends) of unspecified ages with body weight ranging from 2.0 kg to 5.0 kg were housed in cages with a standard light cycle (12-h light, 12-h dark) at room temperature (20–26 °C); the relative humidity ranged from 30% to 70%. Monkeys were given fruits, vegetables or dietary enrichment as a form of environmental enrichment, and various cage enrichment devices. Purina Lab diet 5048C was provided BID and individual monkeys were identified by cage card. The monkeys were randomized to treatment groups by body weight and baseline plasma Lp(a) concentration, as determined by a commercially available Randox assay (Randox LP2757), using a BRAT for the study. In an example cynomolgus monkey study in which 39 monkeys were prescreened for baseline Lp(a) levels, the average Lp(a) level was 350 ± 57 µg ml^−1 (range 53–1,667 µg ml^−1). Monkeys were dosed orally with vehicle (purified water) or compounds QD or BID for 14 days, at dose levels and frequencies as previously described for each compound. Plasma samples were collected on days before dosing to establish baseline Lp(a) and after the morning dose during the study. Lp(a) levels were measured by an investigator who was blinded to group allocation using the Randox assay, and were quantified relative to the calibrator series (Randox LP3404). Data were analysed in GraphPad Prism v.9.5.1. The Lp(a) percentage change from before dosing in non-human primates was analysed by repeated measures ANOVA in SAS v.9.4 (SAS). At each time point, the Lp(a) percentage change for each treated group was compared with vehicle by the Bonferroni method.
# [1] = Pharmacokinetics in monkey plasma after oral dosing; assay type: in vivo; conditions: cynomolgus; for Cmax / Tmax: day 14; for AUC(0-t): day 14, read-out: AUC(0-96 hr)
# [2] = 2mpk BID, Day 1, individual cynos
# [3] = 2mpk BID, Day 3, individual cynos
# [4] = 2mpk BID, Day 5, individual cynos
# [5] = 2mpk BID, Day 9, individual cynos
# [6] = 2mpk BID, Day 14, individual cynos
# [7] = 10mpk BID, Day 1, individual cynos
# [8] = 10mpk BID, Day 3, individual cynos
# [9] = 10mpk BID, Day 5, individual cynos
# [10] = 10mpk BID, Day 9, individual cynos
# [11] = 10mpk BID, Day 14, individual cynos
compound,measurement,setting,value
Cl.Cl.O=C(Nc1cccc(C[C@H](C(=O)O)[C@H]2CCNC2)c1)Nc1cccc(C[C@H](C(=O)O)[C@H]2CCNC2)c1 [LSN3441732],Kd,apo(a) KIV2; ITC,130000 nM
same,binding to KIV2,"apo(a) KIV2; ITC, in words",ruled out
same,Fold-difference (KIV2:KIV8),apo(a) KIV2; ratio of ITC Kd values KIV2:KIV8,>13000
same,"pCFB (pct chng from baseline, Lp(a))",Lp(a); [2],-0.8715 pct and -9.178 pct and 9.115 pct and 2.958 pct and -14.9999 pct and -4.998 pct and -4.507 pct and 6.837 pct
same,Lp(a),Lp(a); [2],66.699 and 27.339 and 53.349 and 76.924
same,"pCFB (pct chng from baseline, Lp(a))",Lp(a); [3],-26.3908 pct and -7.214 pct and -20.0294 pct and -41.4028 pct and -34.8821 pct and 12.2337 pct and -15.3593 pct and -16.4032 pct
same,Lp(a),Lp(a); [3],59.119 and 21.392 and 39.615 and 78.588
same,"pCFB (pct chng from baseline, Lp(a))",Lp(a); [4],-60.4222 pct and -23.7562 pct and -53.193 pct and -73.9823 pct and -52.767 pct and 10.0362 pct and -38.056 pct and -25.4812 pct
same,Lp(a),Lp(a); [4],43.266 and 19.069 and 21.3 and 64.577
same,"pCFB (pct chng from baseline, Lp(a))",Lp(a); [5],-46.3414 pct and -22.6794 pct and -48.3056 pct and -58.1644 pct and -48.9556 pct and 33.2038 pct and -34.8562 pct and -42.8477 pct
same,Lp(a),Lp(a); [5],45.501 and 14.625 and 28.878
same,"pCFB (pct chng from baseline, Lp(a))",Lp(a); [6],-26.8256 pct and -20.2744 pct and -41.4618 pct and -48.6082 pct and -43.1214 pct and 61.8786 pct and -34.6787 pct and -24.6097 pct
same,Lp(a),Lp(a); [6],24.162 and 45.625 and 19.292 and 39.381
same,Lp(a),"Lp(a); 2mpk BID, Day -1 (pre-dose), individual cynos",76.499 and 27.63 and 59.314 and 80.73
same,Lp(a),"Lp(a); 2mpk BID, Day -14 (pre-dose), individual cynos",63.195 and 23.549 and 48.322 and 88.666
same,"pCFB (pct chng from baseline, Lp(a))",Lp(a); [7],6.085 pct and 18.5121 pct and 11.2235 pct and -12.4022 pct and 3.527 pct and -18.0886 pct and 0.3688 pct and -16.5769 pct
same,Lp(a),Lp(a); [7],42.107 and 61.295 and 35.316 and 53.315 and 65.761 and 52.068 and 17.81 and 84.78
same,"pCFB (pct chng from baseline, Lp(a))",Lp(a); [8],-30.0594 pct and -45.1266 pct and -34.624 pct and -67.6349 pct and -34.8372 pct and -50.8715 pct and -17.9315 pct and -61.9012 pct
same,Lp(a),Lp(a); [8],19.23 and 40.411 and 16.352 and 31.338 and 24.297 and 32.773 and 10.682 and 69.322
same,"pCFB (pct chng from baseline, Lp(a))",Lp(a); [9],-74.5889 pct and -41.8647 pct and -61.4356 pct and -52.9091 pct and -78.302 pct and -39.7105 pct and -69.6086 pct and -32.2067 pct
same,Lp(a),Lp(a); [9],12.826 and 33.59 and 11.492 and 22.573 and 16.289 and 30.322 and 6.608
same,"pCFB (pct chng from baseline, Lp(a))",Lp(a); [10],-56.8372 pct and -40.6982 pct and -59.7007 pct and -36.5829 pct and -68.9989 pct and -34.2069 pct and -69.9581 pct and 8.689 pct
same,Lp(a),Lp(a); [10],21.786 and 34.264 and 12.009 and 30.399 and 23.273 and 33.09 and 6.532
same,"pCFB (pct chng from baseline, Lp(a))",Lp(a); [11],-44.94 pct and -47.7665 pct and -60.9759 pct and -27.3662 pct and -62.6383 pct and -7.387 pct and -32.53 pct and -7.053 pct
same,Lp(a),Lp(a); [11],27.791 and 30.18 and 11.629 and 34.817 and 28.048 and 46.579 and 14.67
same,Lp(a),"Lp(a); 10mpk BID, Day -1 (pre-dose), individual cynos",51.607 and 58.876 and 34.406 and 53.514 and 88.739 and 49.824 and 82.77 and 24.664
same,Lp(a),"Lp(a); 10mpk BID, Day -14 (pre-dose), individual cynos",49.341 and 56.682 and 25.193 and 42.356 and 61.404 and 86.167 and 50.764 and 18.822
same,Mean_pCFB,"Lp(a); 2mpk BID, day 1",-1.96
same,Mean_pCFB_vs_Veh,"Lp(a); 2mpk BID, day 1",-1.99
same,Mean_pCFB,"Lp(a); 2mpk BID, day 3",-18.68
same,Mean_pCFB_vs_Veh,"Lp(a); 2mpk BID, day 3",-8.97
same,Mean_pCFB,"Lp(a); 2mpk BID, day 5",-39.7
same,Mean_pCFB_vs_Veh,"Lp(a); 2mpk BID, day 5",-22.16
same,Mean_pCFB,"Lp(a); 2mpk BID, day 9",-33.62
same,Mean_pCFB_vs_Veh,"Lp(a); 2mpk BID, day 9",-19.16
same,Mean_pCFB,"Lp(a); 2mpk BID, day 14",-22.21
same,Mean_pCFB_vs_Veh,"Lp(a); 2mpk BID, day 14",-17.15
same,Mean_pCFB,"Lp(a); 10mpk BID, day 1",-0.92
same,Mean_pCFB_vs_Veh,"Lp(a); 10mpk BID, day 1",-0.95
same,Mean_pCFB,"Lp(a); 10mpk BID, day 3",-42.87
same,Mean_pCFB_vs_Veh,"Lp(a); 10mpk BID, day 3",-33.16
same,Mean_pCFB,"Lp(a); 10mpk BID, day 5",-56.33
same,Mean_pCFB_vs_Veh,"Lp(a); 10mpk BID, day 5",-38.79
same,Mean_pCFB,"Lp(a); 10mpk BID, day 9",-44.79
same,Mean_pCFB_vs_Veh,"Lp(a); 10mpk BID, day 9",-30.33
same,Mean_pCFB,"Lp(a); 10mpk BID, day 14",-36.33
same,Mean_pCFB_vs_Veh,"Lp(a); 10mpk BID, day 14",-31.27
same,maximum decrease of median Lp(a) levels,Lp(a); 2 mg kg^−1 oral BID,45%
same,"%Lp(a) max decrease (dose, mg/kg)",Lp(a); 2 mg/kg BID,40%
same,maximum decrease of median Lp(a) levels,Lp(a); 10 mg kg^−1 oral BID,57%
same,"%Lp(a) max decrease (dose, mg/kg)",Lp(a); 10 mg/kg BID,56%
same,Cmax,[1]; oral 2 mg/kg,754 ± 428 nM
same,Tmax,[1]; oral 2 mg/kg,3.81 ± 2.14 h
same,AUC(0-t),[1]; oral 2 mg/kg,5.63 µM·h
same,Cmax,[1]; oral 10 mg/kg,4380 nM
same,Tmax,[1]; oral 10 mg/kg,2.06 ± 1.32 h
same,AUC(0-t),[1]; oral 10 mg/kg,22.2 µM·h
